Data as given in patent US5843941A, “Ras farnesyl transferase inhibitors” (Genentech, Inc., priority 1994, dated 1998).
Read-outs that look alike come from different tables or passages of the source.

What was measured:
CAAX farnesyltransferase [1] = molecular target: T1, CAAX farnesyltransferase (Rattus norvegicus, UniProt Q02293+Q04631); test: In vitro inhibition of CAAX farnesyltransferase; assay type: biochemical; set-up: purified to homogeneity from rat brain homogenates; from tissue; host or cells: rat brain; alternatively recombinant enzyme from a baculovirus expression system; conditions: Table D
Summary of the method: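 Native or recombinant (baculovirus-infected cells, Q-Sepharose purified) farnesyltransferase incubated 30 min at 37 °C. [3H]farnesyl transfer to p21H-ras measured by SDS/trichloroacetic acid precipitation, nitrocellulose filtration and scintillation counting.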

CAAX farnesyltransferase [2] = molecular target: T1, CAAX farnesyltransferase; test: In vitro farnesylation of the compound by CAAX farnesyltransferase (substrate test, thin layer chromatography); assay type: biochemical; conditions: relative to tetrapeptide CVIM, 3.6 μM, 37° C., 30 min; for % farnesylation "A": diastereomer A; for % farnesylation "B": diastereomer B
Procedure: After incubation at 37° C. for 30 min, the reaction was stopped by addition of 2 μl of 250 mM EDTA, and the entire reaction mixture was spotted onto a plastic-backed Silica Gel G thin layer sheet (20×20 cm, Brinkmann Inst.) and placed in a tank containing n-propyl alcohol/ammonium hydroxide/water (6:3:1 v/v/v).

[3] = diastereomer A, read-out: EC50 (μM) "A"
[4] = diastereomer B, read-out: EC50 (μM) "B"

T1 sequence (Q02293 whole entry, one chain of several): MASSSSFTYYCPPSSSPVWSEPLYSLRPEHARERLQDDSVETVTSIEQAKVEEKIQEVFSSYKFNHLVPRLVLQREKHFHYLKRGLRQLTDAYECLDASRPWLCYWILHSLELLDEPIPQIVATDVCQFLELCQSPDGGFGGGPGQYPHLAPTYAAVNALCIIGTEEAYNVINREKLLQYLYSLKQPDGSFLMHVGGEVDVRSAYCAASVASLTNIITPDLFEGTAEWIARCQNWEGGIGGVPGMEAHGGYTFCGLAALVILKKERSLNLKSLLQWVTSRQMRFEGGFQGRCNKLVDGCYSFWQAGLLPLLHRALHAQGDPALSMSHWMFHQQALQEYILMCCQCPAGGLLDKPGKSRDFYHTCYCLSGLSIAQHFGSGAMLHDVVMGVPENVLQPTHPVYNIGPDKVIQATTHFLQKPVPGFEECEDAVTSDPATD

In the case of CSCC[C@H](NC(=O)CN1C(=O)C(NC(=O)[C@@H](N)CS)N=C(c2ccccc2)c2ccccc21)C(=O)O (stereo partly drawn) [compound 28, N-[[3-[(2-amino-3-mercapto-1-oxopropyl)amino]-2,3-dihydro-2-oxo-5phenyl-1H-1,4-benzodiazepin-1-yl]acetyl]-L-methionine], the EC50 (CAAX farnesyltransferase [1]; [3]) was 0.38 µM, the EC50 (CAAX farnesyltransferase [1]; [4]) was 0.431 µM and the “% farnesylation "A"” value (CAAX farnesyltransferase [2]) was 9%. For the same compound, the “% farnesylation "B"” value (CAAX farnesyltransferase [2]) was less than 1%.
In the case of CSCC[C@H](NC(=O)CN1C(=O)C(N(C)C(=O)CCS)N=C(c2ccccc2)c2ccccc21)C(=O)O (stereo partly shown) [compound 29], the EC50 (CAAX farnesyltransferase [1]; [3]) was 1.8 µM, the EC50 (CAAX farnesyltransferase [1]; [4]) was 1.8 µM and the “% farnesylation "A"” value (CAAX farnesyltransferase [2]) was less than 1%. The “% farnesylation "B"” value (CAAX farnesyltransferase [2]) was less than 1%.
For CN(C(=O)[C@@H](N)CS)C1N=C(c2ccccc2)c2ccccc2N(CC(=O)N[C@@H](CO)C(=O)O)C1=O (stereo partly shown) [compound 30], the EC50 (CAAX farnesyltransferase [1]; [3]) was 10 µM, the EC50 (CAAX farnesyltransferase [1]; [4]) was 0.0084 µM and the “% farnesylation "A"” value (CAAX farnesyltransferase [2]) was less than 1%. The “% farnesylation "B"” value (CAAX farnesyltransferase [2]) was less than 1%.
With CC(C)C[C@H](NC(=O)CN1C(=O)C(N(C)C(=O)[C@@H](N)CS)N=C(c2ccccc2)c2ccccc21)C(=O)O (stereo partly drawn) [compound 31, N-[[3-[(2-amino-3-mercapto-1-oxopropyl)methylamino]-2,3-dihydro-2-oxo-5-phenyl-1H -1,4-benzodiazepin-1-yl]acetyl]-L-leucine] the EC50 (CAAX farnesyltransferase [1]; [3]) was 0.084 µM, the EC50 (CAAX farnesyltransferase [1]; [4]) was 0.0021 µM and the “% farnesylation "A"” value (CAAX farnesyltransferase [2]) was less than 1%. For the same compound, the “% farnesylation "B"” value (CAAX farnesyltransferase [2]) was less than 1%.
With CSCC[C@H](NC(=O)CN1C(=O)C(N(C)C(=O)[C@H](CS)NC(C)=O)N=C(c2ccccc2)c2ccccc21)C(=O)O (stereo partly drawn) [compound 32, N-[[3-[(2-acetylamino-3-mercapto-1-oxopropyl)methylamino]-2,3-dihydro-2-oxo-5-phenyl-1H-1,4-benzodiazepin-1-yl]acetyl]-L-methionine] the EC50 (CAAX farnesyltransferase [1]; [3]) was 1.2 µM, the EC50 (CAAX farnesyltransferase [1]; [4]) was 8 µM and the “% farnesylation "A"” value (CAAX farnesyltransferase [2]) was 110%. The “% farnesylation "B"” value (CAAX farnesyltransferase [2]) was less than 1%.
In the case of CN(C(=O)[C@@H](N)CS)C1N=C(c2ccccc2)c2ccccc2N(CC(=O)N[C@@H](Cc2ccccc2)C(=O)O)C1=O (stereo partly drawn) [compound 34, N-[[3-[(2-amino-3-mercapto-1-oxopropyl)methylamino]-2,3-dihydro-2-oxo-5-phenyl-1H-1,4-benzodiazepin-1-yl]acetyl]-L-phenylalanine], the EC50 (CAAX farnesyltransferase [1]; [3]) was 0.54 µM, the EC50 (CAAX farnesyltransferase [1]; [4]) was 0.0005 µM and the “% farnesylation "B"” value (CAAX farnesyltransferase [2]) was less than 1%.
With COC(=O)[C@H](CCSC)NC(=O)CN1C(=O)C(N(C)C(=O)[C@@H](N)CS)N=C(c2ccccc2)c2ccccc21 (stereo partly shown) [compound 37] the EC50 (CAAX farnesyltransferase [1]; [3]) was 0.19 µM, the EC50 (CAAX farnesyltransferase [1]; [4]) was 0.05 µM and the “% farnesylation "A"” value (CAAX farnesyltransferase [2]) was less than 1%. The “% farnesylation "B"” value (CAAX farnesyltransferase [2]) was 2%.
With CSCC[C@H](NC(=O)CN1C(=O)C(N(C)C(=O)C2CSC(C)N2)N=C(c2ccccc2)c2ccccc21)C(=O)O (stereo partly drawn) [compound 43, N-[[3-[(2-methylthiazolidine-4-carboxyl)methylamino] -2,3-dihydro-2-oxo-5-phenyl-1H-1,4-benzodiazepin-1-yl]acetyl]-L-methionine] the EC50 (CAAX farnesyltransferase [1]; [3]) was 0.32 µM, the EC50 (CAAX farnesyltransferase [1]; [4]) was 0.006 µM and the “% farnesylation "A"” value (CAAX farnesyltransferase [2]) was less than 1%. The “% farnesylation "B"” value (CAAX farnesyltransferase [2]) was less than 1%.
For CC(C)C[C@H](NC(=O)CN1C(=O)C(N(C)C(=O)[C@@H](N)CS)N=C(c2ccccc2)c2ccccc21)c1nnn[nH]1 (stereo partly drawn) [compound 46, N-[[3-[(2-amino-3-mercapto-1-oxopropyl)methylamino]-2,3-dihydro-2-oxo-5-phenyl-1H-1,4-benzodiazepin-1-yl]acetyl]-L-leucine tetrazole], the EC50 (CAAX farnesyltransferase [1]; [3]) was 0.26 µM, the EC50 (CAAX farnesyltransferase [1]; [4]) was 0.0016 µM and the “% farnesylation "B"” value (CAAX farnesyltransferase [2]) was less than 1%.
